Source: US20070026090A1, “Treatment and prevention of inflammatory disease and mitochondrial dysfunction with high dose selenium” (priority 2003, published 2007)
Entries after “also recorded” stand apart in the source; their conditions may differ.

Experiments:
[1] = Selenium incorporation into colon tissue (ICP-AES); format: in vivo, rat
Description: Measurement of selenium incorporation into colon tissue: inductively coupled plasma (ICP) method: Colon tissue samples were prepared for analysis of selenium content by microwave-assisted digestion using an MLS 1200 mega microwave digestion unit [Milestone Sorisole (BG), Italy]. At the conclusion of the digestion period the vessels were allowed to cool down to room temperature and were uncapped. Liquid residues were taken up in water, transferred into 25-ml calibrated flasks and equilibrated to 25 ml volume with water. Analyses were conducted on portions of these solutions, versus multi-element selenium standards from Merck (Merck and Co, EMBD Biosciences, San Diego Calif.) in the same solvent. Selenium (Se) was determined by ICP-atomic emission spectrometry (AES) at 196.090 nm. An ICP-AES system, model “Spectroflame Modula E” from Spectro, Kleve, Germany was used with a cross-flow nebulizer. The power level was 1.2 kW, coolant flow 15 l/min, auxiliary flow 0.5 l/min and nebulizer flow 0.5 l/min. Observation height was 10 mm above the coil.

[2] = test system: myeloperoxidase (MPO) activity; assay: Tissue inflammation: myeloperoxidase activity in colon tissue; format: in vivo, rat; conditions: 24 h after TNBS; 16 ppm sodium selenite in drinking water, three weeks (FIG. 3 column D)
Description: Tissue inflammation-Myeloperoxidase activity: Colonic tissue samples (approximately 100-120 mg) were collected 4 cm proximal to the anus. Each tissue sample was homogenized in a solution containing 0.5% hexa-decyl-trimethyl-ammonium bromide (HTAB) (Sigma-Aldrich Corp, St. Louis, Mo.) buffer (0.5% HTAB in 50 mM phosphate buffer, pH 6.0). Tissue samples were minced in a test tube containing 1 ml of HTAB buffer on ice and homogenized with a Polytron tissue homogenizer (Brinkmann Instruments, Inc, Westbury N.Y., USA). The pooled homogenates and washes were sonicated in water for 20 seconds. After three cycles of freeze-thawing, the sonicated samples were centrifuged in cold for 15 min. at 40,000×g. Myeloperoxidase activity (MPO) was assayed in the supernatant as described by Krawisz (Krawisz et al., 1984) after addition of O-dianizidine-HCl (Sigma-Aldrich Corp, St Louis, Mo.) and 0.15% (v/v) H2O2 as a substrate for the MPO. The rate of change in absorbance was measured spectrophotometrically at 460 nm, and is expressed as the amount of enzyme necessary to produce a change in absorbance of 1.0 unit per minute (1 unit) per gram wet weight tissue.

[3] = test system: glutathione peroxidase (GPx); assay: GPx activity in macrophage cell extract; format: cell-based, murine; conditions: 24 h; range 0.5-30 μM (FIG. 8B)
Description: (§1) Cell culture: Murine J774.2 macrophages (kindly provided by Prof. Dov Zipori from the Weizmann Institute of Science) were grown in RPMI medium supplemented with 10% (w/v) fetal calf serum, penicillin (100 U/ml), streptomycin (100 μg/ml) and 1× glutamine at 37° C. in a humidified atmosphere consisting of 95% air and 5% CO2. Experiments were performed on cells at 60% confluence.
GPx activity: GPx activity was determined by following the rate of NADPH oxidation at 340 nm in the presence of the substrates: 3 mM glutathione (GSH), 1.2 U glutathione reductase (GR) and 1.5% H2O2, using a microfluorometer plate reader (GENios, Tecan, Austria). The reaction contained 500 μl Tris reaction buffer (100 mM Tris Hcl, 300 mM Kcl, 5 mM EDTA, 1 mM NaN3, pH 7.0), substrates and 100 μl cell extract. Macrophages were treated with selenium for 24 h. Wells were washed twice with PBS, cells permeabilized, and scraped using 200 μl 0.2% Triton X-100. The reaction was recorded every minute for 25 minutes. Slopes were calculated and the results were adjusted according to the protein amount calculated with the Bradford reagent.

[4] = test system: MnSOD; assay: MnSOD transcription and expression (RTPCR, Western blot); format: cell-based, murine; conditions: LPS + INFγ activated; 24 hours; range 0.5-5 μM (FIG. 11)
Description: as §1
(§2) Western blots (Sp1, MnSOD, UCP2): Cells were grown in six-well tissue culture plates, treated with selenium for 72 h and activated with LPS and IFN-γ for 24 h. The wells were washed with PBS, scraped and centrifuged
(5 min. 2000 RPM), and lysed by addition of boiling hot lysis buffer (1% SDS, 1 mM sodium ortho-vanadate, 10 mM Tris pH 7.4) to the pellets. Protein content was measured (BIO RAD protein assay kit) and equalized. Sample buffer (containg SDS) was added and the samples were boiled. The samples were subjected to SDS-PAGE followed by western blot analysis. Separated proteins were transferred electrophoretically from the gel to a nitrocellulose membrane (Amersham International plc, Buckinghamshire, ENGLAND). The membrane was blocked in TBS (0.15 M NaCl/10 mM Tris/HCl, pH7.4) containing 5% (v/v) skimmed milk (Blotto), then incubated over night with primary antibodies at RT (diluted 1/2000 in blotto). After being washed six times in TBST [TBS containing 0.05% (v/v) Tween 20], the membrane was incubated for 2 h at room temperature with secondary antibody (diluted 1/5000 in blotto). Immunoreactive bands were detected with ECL western blotting detection reagents (Amersham Pharmacia Biotech, Buckingammshire England) and developed on film (Fuji super RX, Dusseldorf, Germany). […]
Right (antisense) 5′[…]-3′ (SEQ ID NO: 6) corresponding to nucleotides 622 to 640 of mouse mRNA region (GenBank Accession No. NM 013671). […] Actual PCR product was approximately 570 bp, measured on 1.25% agarose gel in TAE containing ethidium bromide.
(§3) PCR was performed with 28 cycles (25 cycles for GAPDH) of 30 seconds at 96° C., 30 seconds at 58° C. and 1 min at 72° C. RTPCR products were analyzed on 1.3% (w/v) agarose gels.

[5] = test system: UCP2; assay: UCP2 transcription and expression (RTPCR, Western blot); format: cell-based, murine
Description: as §1, §2
(5 min. 2000 RPM), and lysed by addition of boiling hot lysis buffer (1% SDS, 1 mM sodium ortho-vanadate, 10 mM Tris pH 7.4) to the pellets. Protein content was measured (BIO RAD protein assay kit) and equalized. Sample buffer (containg SDS) was added and the samples were boiled. The samples were subjected to SDS-PAGE followed by western blot analysis. Separated proteins were transferred electrophoretically from the gel to a nitrocellulose membrane (Amersham International plc, Buckinghamshire, ENGLAND). The membrane was blocked in TBS (0.15 M NaCl/10 mM Tris/HCl, pH7.4) containing 5% (v/v) skimmed milk (Blotto), then incubated over night with primary antibodies at RT (diluted 1/2000 in blotto). After being washed six times in TBST [TBS containing 0.05% (v/v) Tween 20], the membrane was incubated for 2 h at room temperature with secondary antibody (diluted 1/5000 in blotto). Immunoreactive bands were detected with ECL western blotting detection reagents (Amersham Pharmacia Biotech, Buckingammshire England) and developed on film (Fuji super RX, Dusseldorf, Germany). Primary antibodies for Sp1 and MnSOD were from BD Transduction Laboratories (Becton Dickenson and Co., San Jose, Calif. USA) and for UCP2 from Alpha Diagnostics LTD (Warszaw, Poland). Secondary antibodies were from Jackson ImmunoResearch (Jackson Labs, Bar Harbor, Maine, USA).
Reverse transcriptase-PCR (RTPCR): Total RNA was prepared and isolated by the Tri-Reagent method according to the manufacturer's protocol (Sigma, St. Louis Mo., USA). Total RNA (1 μg) was converted into cDNA using Reverse-iT first strand synthesis kit (Abgene, UK). Amplification of MnSOD and UCP2 sequences was performed by incubating 10 ng equivalents of DNA with the following oligonucleotide primers:
Left (sense), 5′-[…]-3′ (SEQ ID NO:7) corresponding to nucleotides 372 to 392 of mouse mRNA (GenBank Accession No. NM 011671).
Right (antisense) 5′[…]-3′ (SEQ ID NO: 8) corresponding to nucleotides 826 to 846 of mouse mRNA (GenBank Accession No. NM 011671). The expected PCR product was 474 bp. Actual PCR product was approximately 474 bp, measured on 1.25% agarose gel in TAE containing ethidium bromide.
as §3

[6] = Cell viability (PI exclusion, flow cytometry); format: cell-based, murine; conditions: mouse, 10 μM during or after activation (FIGS. 14A, 14B); read-out: decrease in cell viability, activated and inactivated cells
Description: Experiments were performed on cells at 60% confluence.
Determination of cell viability: Cell-membrane integrity was detected by flow cytometer (FACSort, Becton Dickenson and Co., San Jose, Calif. USA) as a measurement of cell viability. For this assay, the nonpermeant DNA-intercalating dye propidium iodide (PI), which is excluded by viable cells, was used. Fluorescence settings were excitation at 488 nm and emission at 575 nm. Data were collected from at least 10,000 cells.

[7] = mice and rats; up to 0.8 mg/kg body weight selenium; cited from earlier work
[8] = test system: Electron Transport Chain (complex 1); assay: Oxygen consumption of fresh colon tissue with rotenone; conditions: healthy rat colon tissue; 20 μg/ml rotenone (FIG. 4)
Description: Mitochondrial respiration activity in colon tissue: Mitochondrial respiration was measured by direct assessment of oxygen consumption of the tissue. Briefly, colons were removed, chilled on ice, and washed extensively with cold PBS. Colon tissue samples (5-10 mm in width, 100 mg) were incubated at ambient temperature in PBS supplemented with 5 mM glucose. Oxygen consumption was measured polarographically using a computerized Clark-type oxygen electrode. The addition of the Electron Transport Chain (complex 1) inhibitor rotenone was used to determine whether the majority of oxygen consumption measured in the colon samples was mitochondrial respiration-dependent.

[9] = mice, at 60 and 90 days; as selenocysteine; cited from earlier work
[10] = test system: AOM-induced colon cancer; conditions: up to 5.4 ppm in water; cited from earlier work

SMILES: O=[Se](O)O [sodium selenite]
- increase in colon tissue selenium levels compared with healthy rats ([1]; colitis-induced rats, 24 h after TNBS, 16 ppm in water, three weeks (FIG. 1 C and D)): greater
- colon tissue selenium vs untreated controls ([1]; healthy and colitis rats (columns B and D vs A and C), 16 ppm in drinking water, three weeks): enhanced levels
- protection against TNBS-induced inflammation (MPO activity) [2]: > 80%
- concentration of maximum stimulation of GPx activity [3]: 0.5 µM
- lowest concentration effective in reducing MnSOD expression, activated macrophages [4]: 1 µM
- lowest concentration giving a significant decrease in UCP2 transcripts ([5]; 24 and 72 hours (FIG. 10A)): 5 µM
- reduction in detectable UCP2 protein ([5]; 24 hours at 30 μM (FIG. 10B)): greater than 50%
- lowest concentration effective in reducing UCP2 expression, activated macrophages ([5]; LPS + INFγ activated, 24 hours, range 0.5-5 μM (FIG. 11)): 1 µM
- cytotoxicity at 10 μM [6]: ≤ 60%
- adverse effects of long term supplementation [7]: no observable adverse effects

SMILES: C=C(C)[C@H]1Cc2c(ccc3c2O[C@@H]2COc4cc(OC)c(OC)cc4[C@@H]2C3=O)O1 [rotenone]
- respiration (O2 consumption) of colon tissue [8]: strongly inhibited; also recorded: significantly reduced

SMILES: N[C@@H](C[SeH])C(=O)O [selenocysteine]
- dietary supplementation at which toxicity was observed [9]: greater than 10 mg selenium per kg body weight per day

SMILES: C[Se]CC[C@H](N)C(=O)O [selenomethionine]
- anti-cancer treatment effect [10]: ineffective
